Test results taken from paper PMC10492836, “Chemical-induced phase transition and global conformational reorganization of chromatin” (Nature Communications, 2023).

Biological target: T1, histone H1
T1 construct: Recombinant histone H1 immobilized on CM5 chip
Assay: SPR (Biacore 8K, […] Langmuir fit); supported by in vitro co-condensation with H1-CFP
Type: binding

COc1cccc2c1C(=O)c1c(O)c3c(c(O)c1C2=O)C[C@@](O)(C(=O)CO)C[C@@H]3O[C@H]1C[C@H](N)[C@H](O)[C@H](C)O1 [adriamycin] gave a Kd of 1970 nM.
